Measurements reported in PubChem BioAssay AID2305 (GlaxoSmithKline (GSK), 2010).

What follows are compounds tested on P. falciparum 3D7 growth, pLDH absorbance (assay: blood-stage malaria parasite growth potency – strain 3D7, dose response (AID 2305)).

| SMILES | IC50 [nM] |
| --- | --- |
| CN(c1ccc(NC(=O)Nc2cc(C(F)(F)F)ccc2F)cc1)c1ccnc(NCCN2CCOCC2)n1 | 510 |
| CC(C)(C)C1CCC(CC2=C(C(=O)O)c3ccccc3C2=O)CC1 (configuration not stated) | 1100 |
| CCOC(=O)c1c(C)noc1Nc1cccc(C)c1C | 420 |
| CCN(CC)C(=O)C1CCN(C(C(=O)N2CCN(CC(=O)N3CCCC3)CC2)c2cc3ccccc3o2)CC1 (configuration not stated) | 710 |
| CCCCCCCc1c2c(C)c(C(=O)OCC)nc-2cc2n1CC(C)=C2C | 1140 |
| CCC(C)NCC(O)(c1ccc(Cl)cc1)c1ccc(Cl)cc1 (configuration not stated) | 840 |
| CCC(CO)NCC(O)Cn1c2ccc(Cl)cc2c2cc(Cl)ccc21 (configuration not stated) | 770 |
| CCCCCCCN1CCC(CC(=O)Nc2ccnc3ccc(OC)cc23)CC1 | 720 |
| O=C(NC1CCC(CN2CCC(c3c[nH]c4ccccc34)CC2)CC1)c1cn(Cc2ccccc2)c2ccccc12 (configuration not stated) | 1130 |
| O=C(Nc1cccnc1)c1cc(-c2cccnc2)nc2ccc(Br)cc12 | 640 |
| Cc1cc2ccccc2c(CON2C(N)=NC(N)=NC2(C)C)c1C | 10 |
| COc1ccc(-c2nc3nc4ccccc4cc3[nH]2)c(OCC(O)CNC(C)C)c1 (configuration not stated) | 690 |
| COc1cccc(-c2ccc3c(-c4cccc(NC(C)=O)c4)cnc(N)c3c2)c1 | 110 |
| CCCCc1cc(NCC)nc(Nc2ccc(F)cc2)n1 | 790 |
| N#Cc1ccc(N[C@@H](CC2CCCCC2)C(=O)NCc2cc(F)c(F)cc2F)c2ccccc12 | 950 |
| O=C(N[C@@H](CC1CCCCC1)C(=O)NCCN1CCCCC1)c1ccc(O)c(-c2cccc(C(F)(F)F)c2)c1 | 830 |
| O=c1[nH]c2c(cc1CNC1CCCCC1)c(-c1cccc(F)c1)nn2-c1ccccc1 | 950 |
| CCN(CC)C(=NCCCCCCN=C(NC(N)=NCc1ccc(Cl)cc1Cl)N(CC)CC)NC(N)=NCc1ccc(Cl)cc1Cl | 220 |
| OC[C@H]1CCCN1CC#Cc1cc2c(Nc3ccc(OCc4cccc(F)c4)c(Cl)c3)ncnc2s1 | 1210 |
| CCCC(C)NC[C@@H](O)[C@H](Cc1ccccc1)NC(=O)c1cc(C2CCCC2)cc(N2CCCCS2(=O)=O)c1 (some centres not stated) | 150 |
| Clc1ccccc1CN1CCC(NCc2cccc(-n3ccnc3)c2)CC1 | 790 |
| COc1ccc(S(=O)(=O)NC2CCN(CCNC(=O)Nc3cc(C)nc4ccccc34)C2)cc1 (configuration not stated) | 1190 |
| CCCCC1(c2ccc(F)cc2)NC(=O)N(CC(=O)c2cc(C)n(Cc3ccco3)c2C)C1=O (configuration not stated) | 980 |
| COc1ccc(CNC2CCN(C)CC2)cc1-c1ccc(S(=O)(=O)NC2CCC2)s1 | 730 |

| SMILES | IC50 [nM] |
| --- | --- |
| Cc1cc(-c2ccc(CNC3Cc4ccccc4C3)cc2)ccc1S(=O)(=O)NCCN1CCCC1 | 700 |
| COc1ccc2nc(-c3ccccc3)cc(NN=Cc3ccc([N+](=O)[O-])cc3)c2c1 | 150 |
| O=C(C=Cc1ccc(Cl)c(Cl)c1)NCCCCCN1CCC(CCNS(=O)(=O)c2ccc(Br)cc2)CC1 | 1120 |
| COc1ccc(-c2cccc(NC(=O)c3cccc(C#N)c3)c2)cc1CN(C)CCO | 820 |
| COc1ccccc1C1CCN(C2CCC(NC(=O)/C=C/c3cc(F)c(F)cc3F)CC2)CC1 (configuration not stated) | 1600 |
| CCN(CCCN1CCCCC1)c1cc(C)nc(Nc2cc(Br)ccc2C)n1 | 410 |
| COc1ccc(CNC(=O)NC2CCN(c3ccnc(Nc4cc(OC)c(OC)c(OC)c4)n3)C2)cc1 (configuration not stated) | 950 |
| COc1ccc(CNC2CCCC2)cc1-c1ccc(S(=O)(=O)NCCN2CCCC2)s1 | 800 |
| CN1CCC(NCc2ccc(-c3cccc(S(=O)(=O)NCCc4ccccn4)c3)cc2)CC1 | 990 |
| c1cc(CNC2Cc3ccc(-c4cccs4)cc3C2)cc(-n2ccnc2)c1 (configuration not stated) | 590 |
| COc1cccc(NC(=O)c2cc(Br)cc(N3CCN(c4ccncc4)CC3)c2)c1 | 770 |
| Cc1[nH]c2ccccc2c(=O)c1-c1ccc(Cl)cc1 | 1000 |
| N#Cc1ccc2c(c1)CCN(CCC1CCC(NC(=O)c3ccc(-c4ccccc4)s3)CC1)CC2 (configuration not stated) | 680 |
| Cc1cnc(N2CCN(CC3CCN(C)CC3)CC2)nc1Oc1ccc(-n2ccnc2)cc1 | 720 |
| CCN1CCC(N(Cc2ccc(-c3ccc(C(F)(F)F)cc3)cc2)C(=O)Cn2c(CCc3cccc(F)c3F)cc(=O)c3cn(C)nc32)CC1 | 240 |
| COc1ccc(CC(=O)Nc2ccc(Nc3nc(C)cc(N(C)C)n3)cc2)cc1 | 790 |
| Cc1nc(N)nc(N)c1-c1ccc(Br)c(Br)c1 | 50 |
| CCOC(=O)c1ccc(NC(=O)Nc2ccc(Cn3ncc(N4CCCNCC4)c(Cl)c3=O)cc2)cc1 | 440 |
| CCOC(=O)CNC(=O)c1cc(=O)c2ccccc2o1 | 210 |
| CN(C)C(CNC(=O)c1cc(-c2ccncc2)c(-c2ccc(NC(=O)Nc3cccc(F)c3)cc2)o1)c1ccccc1 (configuration not stated) | 770 |
| c1ccc(Oc2ccc(Nc3ccnc4c(-c5ccccn5)cccc34)cc2)cc1 | 990 |
| Oc1ccc2ccccc2c1CNCC1CCCCC1 | 670 |
| O=C(NCC(NCCCNc1cc(=O)c2ccccc2[nH]1)c1cc(Br)cc(Br)c1)C1=CCCC1 (configuration not stated) | 900 |
| O=C(NC1CCCCC1)N(Cc1ccccc1-c1ccc(CNCCc2ccccc2)cc1)C1CCN(Cc2ccccc2)CC1 | 930 |

| SMILES | IC50 [nM] |
| --- | --- |
| CCCCOc1c(CCNCCCCNCCc2cc(F)c3ccccc3c2OCCCC)cc(F)c2ccccc12 | 630 |
| O=[N+]([O-])c1ccc2nc(Nc3cccc(C(F)(F)F)c3)c(Nc3cccc(C(F)(F)F)c3)nc2c1 | 480 |
| CN1CCN(CCCNCc2ccc(Nc3nccc(Nc4ccc(Oc5ccccc5)cc4)n3)cc2)CC1 | 630 |
| COc1ccc2cc(C=NNc3nc4ccccc4[nH]3)c(Cl)nc2c1 | 650 |
| COc1cc2nc(N3CCC(CNC(=O)c4ccc(-c5ccc(O)cc5)cc4)CC3)nc(N)c2cc1OC | 170 |
| CC(C)c1ccc(NC(=S)NN=Cc2ccccn2)cc1 | 720 |
| COc1ccc2nccc([C@@H](O)CN3CCC(NC(=O)c4ccc(-c5ccc(C#N)cc5)cc4)CC3)c2c1 | 160 |
| COc1ccc2ccccc2c1CCCCN1CCN(CC(c2ccc(F)cc2)N2CCC2)CC1 (configuration not stated) | 760 |
| CC1CCN(c2nc(C(=O)NCCc3ccc(Cl)c(Cl)c3)c(C(C)C)s2)CC1 | 1930 |
| Cc1ccc(Nc2ccnc(Nc3ccc(F)c(Cl)c3)n2)cc1O | 730 |
| O=C(Nc1cccc(-c2csc(-c3ccccc3)n2)c1)c1cccs1 | 800 |
| Cc1sc2ncnc(Sc3nc4ccccc4[nH]3)c2c1C | 260 |
| Cc1[nH]c(C)c(-c2ccc(-c3ccc(OC(F)(F)F)cc3)nc2)c(=O)c1Cl | 200 |
| O=S(=O)(NC1CCN(c2ccnc3cc(Cl)ccc23)C1)c1ccc(C(F)(F)F)cc1 (configuration not stated) | 300 |
| CN1CCN(Cc2cc(NC(=O)c3ccc(-c4ccc(Cl)cc4Cl)cc3)ccc2-c2ccccc2)CC1 | 970 |
| CN1CCN(c2cc(NC(=O)c3ccc(-c4ccc(C#N)cc4)cc3)ccc2Cl)CC1 | 460 |
| COCCNCc1cccc(-c2cccc(CNC3CCN(Cc4ccccc4)CC3)c2)c1 | 280 |
| c1ccc(-c2cc3cccc(-c4nc5ccncc5[nH]4)c3o2)cc1 | 110 |
| COc1ccc(CCNCC(O)c2cccc(Br)c2)c(Cl)c1OC (configuration not stated) | 1040 |
| COc1ccc(S(=O)(=O)N2CCCc3ccc(Br)cc32)cc1N1CCN(C(=O)C(Cl)(Cl)Cl)CC1 | 810 |
| c1ccc2cc3c(Nc4ccc(N5CCCCCC5)cc4)ccnc3cc2c1 | 940 |
| CN1CCCN(c2ccnc3cc4c(cc23)N(C(=O)c2ccc(C(F)(F)F)cc2)CC4)CC1 | 790 |
| CC1(C)N=C(N)N=C(N)N1OCCSCCON1C(N)=NC(N)=NC1(C)C | 50 |
| CC(C)CNCc1ccc(-c2cccc(CN(CCN(C)C)C(=O)CCC3CCCC3)c2)cc1 | 810 |
